Measured values reported in US7645740B2, “Peptide sequence found in Laminin 5 for treating skin impairments” (Laboratoires d'Anjou Centre National de la Recherche …, priority 2004, dated 2010).

What was measured:
[1] = system: NHK-young (keratinocytes from young individuals); assay: Cell adhesion of NHK-young to immobilized peptide; assay type: cell-based, human
Description: Dose-dependent cell adhesion of NHK-10 years versus NHK-71 years (A) and NHK-11 years versus NHK-60 years (B) peptides TALRIRATYHEY. The peptides were immobilized in 96-well plates at the concentrations given on the abscissa. 3.5×10^4 (A) cells and 4.3×10^4 (B) cells were deposited in each well and plates were incubated at 37° C. for 1 hour. After washing, attached cells were fixed and cell adhesion was measured as described in the methodology section (C). Cells were observed by phase contrast microscopy then photographed. Bar=50 μm.
In order to obtain keratinocytes originating from biopsies taken from young and old individuals and taken from the same anatomical site, the inventors conducted a study of facial skin biopsies. The area of the face situated behind the ears was chosen in order to study only intrinsic aging and to overcome the effects of photo-induced aging. Surgery waste from cosmetic surgery (face lifts) in older individuals and surgery waste from detached ears in young children was collected. It is essential to use biopsies collected on the same day as surgery was performed in order to quickly place the epidermal keratinocytes in culture. Cells from biopsies on elderly individuals (60, 63 and 71 years) and young individuals (8, 10 and 11 years) were used for this study. The keratinocytes were obtained by means of the technique described by Boyce and Ham, 1985. After careful washing in PBS buffer containing antibiotics, fatty tissue located under the dermis was removed from the skin fragments using sterile instruments. Skin was then cut into 3 mm^2 sections which were placed in a sterile solution of 0.25% trypsin in PBS for 16 hours at 4° C. Dermis/epidermis separation was performed using tweezers in a Petri dish containing culture medium in order to stop the enzyme action of trypsin. Epidermal fragments were then aspirated and blown out several times using a pipette in order to detach free basal cells. […]

[2] = Quantity of peptide immobilized on 96-well plates by amino acid analysis; conditions: 18 hours at +4° C.
Description: The peptide was diluted in sterile PBS. Samples containing the peptide to be assayed were lyophilized by evaporation. They were deposited in a reactor and placed under vacuum in order to eliminate oxygen likely to oxidize certain amino acids. Hydrolysis of the peptide bonds was carried out in a hydrochloric acid mixture (HCL 6N, ⅔), trifluoroacetic acid (TFA, ⅓) at 150° C. for 45 minutes. Gas hydrolysis prevented contamination by ions present in the acids. The samples were then dried and dissolved in a suitable buffer for ion-exchange chromatography (sodium citrate). Ion-exchange chromatography makes it possible to separate amino acids according to their ionic strength and, on leaving the column, they react with a reagent (ninhydrin) to form a dyed complex with primary amines (violet, readable at 570 nm). Ninhydrin also reacts with secondary amines (proline, hydroxyproline) to form a yellow compound that can be read at 440 nm. Two separate chromatograms allow the samples to be analysed.
A semi-automatic Beckman 6300 analyser optimised for this analysis was used along with Beckman Gold software in order to quantify the chromatograms. […]
FIG. 17 gives the data obtained in the experiments aimed at identifying the assay conditions for the peptide deposited in 96-well plates and not immobilized. Five experiments were carried out with decreasing quantities of peptide, from 5 μg to 0.7 μg. […]

TALRIRATYGEY (Human laminin 5) [Peptide 1]
deposited peptide quantity triggering adhesion ([1]; NHK-young): 0.08 µg
cell adhesion to immobilized peptide ([1]; NHK-young, 0 to 5 micrograms per well, 1 hour 37° C.): triggered dose-dependent cell adhesion
number of NHK-young cells attached compared to NHK-old (fold) ([1]; both experiments (10 vs 71 years, 11 vs 60 years), identical cell numbers): ~2
quantity of peptide remaining in the supernatant after immobilization, of quantity added ([2]; 3.55 μg, 2.56 μg, 1.23 μg and 0.73 μg deposited): approximately 90%
mean quantity remaining in solution in the wells ([2]; Q1, average starting quantity 2.44 μg, five supernatants): 2.212 µg
